According to ChEMBL document CHEMBL1777730, “Antimycobacterial activity of novel 1,2,4-oxadiazole-pyranopyridine/chromene hybrids generated by chemoselective 1,3-dipolar cycloadditions of nitrile oxides” (2011):
Converted amounts (≈) assume the structure as drawn.

Tested on: Mycobacterium tuberculosis
Assay: Antimycobacterial activity against Mycobacterium tuberculosis H37Rv by agar dilution method
Format: functional

| Structure (SMILES) | MIC [µM] |
| --- | --- |
| CN1CC2=C(OC(N)=C(c3nc(-c4ccc(Cl)cc4)no3)C2c2ccccc2)/C(=C/c2ccccc2)C1 (centres undefined) | 12.3 (≈ 6.25 µg/mL) |
| CN1CC2=C(OC(N)=C(c3nc(-c4ccc(Cl)cc4)no3)C2c2ccc(Cl)cc2)/C(=C/c2ccc(Cl)cc2)C1 (centres undefined) | 0.35 (≈ 0.202 µg/mL) |
| Cc1ccc(/C=C2\CN(C)CC3=C2OC(N)=C(c2nc(-c4ccc(Cl)cc4)no2)C3c2ccc(C)cc2)cc1 (centres undefined) | 3.28 (≈ 1.76 µg/mL) |
| COc1ccc(/C=C2\CN(C)CC3=C2OC(N)=C(c2nc(-c4ccc(Cl)cc4)no2)C3c2ccc(OC)cc2)cc1 (centres undefined) | 22 (≈ 12.5 µg/mL) |
| Cc1ccccc1/C=C1\CN(C)CC2=C1OC(N)=C(c1nc(-c3ccc(Cl)cc3)no1)C2c1ccccc1C (centres undefined) | 11.6 (≈ 6.25 µg/mL) |
| COc1ccccc1/C=C1\CN(C)CC2=C1OC(N)=C(c1nc(-c3ccc(Cl)cc3)no1)C2c1ccccc1OC (centres undefined) | 5.5 (≈ 3.13 µg/mL) |
| CN1CC2=C(OC(N)=C(c3nc(-c4ccc(Cl)cc4)no3)[C@@H]2c2cccc(F)c2)/C(=C/c2cccc(F)c2)C1 | 0.73 (≈ 0.398 µg/mL) |
| CN1CC2=C(OC(N)=C(c3nc(-c4ccc(Cl)cc4)no3)C2c2ccc(Cl)cc2Cl)/C(=C/c2ccc(Cl)cc2Cl)C1 (centres undefined) | 0.31 (≈ 0.201 µg/mL) |
| CN1CC2=C(OC(N)=C(c3nc(-c4ccc(Cl)cc4)no3)C2c2ccc(N(C)C)cc2)/C(=C/c2ccc(N(C)C)cc2)C1 (centres undefined) | 5.26 (≈ 3.13 µg/mL) |
| NC1=C(c2nc(-c3ccccc3)no2)C(c2ccc(Cl)cc2)C2=C(O1)/C(=C/c1ccc(Cl)cc1)CCC2 (centres undefined) | 23.7 (≈ 12.5 µg/mL) |
| COc1ccc(/C=C2\CCCC3=C2OC(N)=C(c2nc(-c4ccccc4)no2)[C@@H]3c2ccc(OC)cc2)cc1 | 24.1 (≈ 12.5 µg/mL) |
| NC1=C(c2nc(-c3ccccc3)no2)C(c2ccc(F)cc2)C2=C(O1)/C(=C/c1ccc(F)cc1)CCC2 (centres undefined) | 12.6 (≈ 6.26 µg/mL) |
| Cc1ccccc1/C=C1\CCCC2=C1OC(N)=C(c1nc(-c3ccccc3)no1)C2c1ccccc1C (centres undefined) | > 25 |
| COc1ccccc1/C=C1\CCCC2=C1OC(N)=C(c1nc(-c3ccccc3)no1)C2c1ccccc1OC (centres undefined) | 24.1 (≈ 12.5 µg/mL) |
| NC1=C(c2nc(-c3ccccc3)no2)C(c2cccc(F)c2)C2=C(O1)/C(=C/c1cccc(F)c1)CCC2 (centres undefined) | 12.6 (≈ 6.26 µg/mL) |
| N#CC1=C(N)OC2=C(CCC/C2=C\c2ccccc2)C1c1ccccc1 (centres undefined) | > 25 |
| N#CC1=C(N)OC2=C(CCC/C2=C\c2ccc(Cl)cc2)C1c1ccc(Cl)cc1 (centres undefined) | > 25 |
| Cc1ccc(/C=C2\CCCC3=C2OC(N)=C(C#N)C3c2ccc(C)cc2)cc1 (centres undefined) | > 25 |
| COc1ccc(/C=C2\CCCC3=C2OC(N)=C(C#N)C3c2ccc(OC)cc2)cc1 (centres undefined) | > 25 |
| N#CC1=C(N)OC2=C(CCC/C2=C\c2ccc(F)cc2)C1c1ccc(F)cc1 (centres undefined) | > 25 |
| N#CC1=C(N)OC2=C(CCC/C2=C\c2ccccc2Cl)C1c1ccccc1Cl (centres undefined) | > 25 |
| CC[C@@H](CO)NCCN[C@@H](CC)CO [ETHAMBUTOL] | 7.64 (≈ 1.56 µg/mL) |
| NNC(=O)c1ccncc1 [ISONIAZID] | 0.36 (≈ 0.0494 µg/mL) |
| CO[C@H]1/C=C/O[C@@]2(C)Oc3c(C)c(O)c4c(O)c(c(/C=N/N5CCN(C)CC5)c(O)c4c3C2=O)NC(=O)/C(C)=C\C=C\[C@H](C)[C@H](O)[C@@H](C)[C@@H](O)[C@@H](C)[C@H](OC(C)=O)[C@@H]1C [RIFAMPIN] | 0.12 (≈ 0.0988 µg/mL) |
